pIC50: −log10 of the molar value. Where two headings read alike, the source gives them in different places.
How the values were obtained:
[1] = tested on: IFNγ-induced NO production in Raw 264.7 cells; assay: Nitric oxide assay: suppression of IFNγ-induced NO production (Griess nitrite, adjusted to live cell numbers); assay type: cell-based; settings: Mus musculus, RAW264.7, 2 h pretreatment, IFNγ 10 ng/ml for 24 hours
Description: Raw 264.7 cells were seeded in 96-well plates at a density of 30, 000 cells per well in DMEM+10% FBS and incubated overnight. The next day, cell media was replaced by DMEM+2% FBS. Cells were pretreated with DMSO or test compounds (top dose 100 nM, 1:4 serial dilution, 10-point) for 2 hours and then treated with recombinant mouse IFNγ (R&D, Cat# 485-MI-100) at a final concentration of 10 ng/ml for 24 hours. Nitrite levels were measured in culture media as a surrogate for nitric oxide using the Griess Reagent System (Promega, Cat# G2930). Cell viability was determined using CellTiter Glo reagents (Promega, Cat#G7572). The nitrite levels were adjusted to live cell numbers and inhibition percentage was calculated. The inhibition percentage was then plotted against compound concentration, and IC50 values were calculated using four-parameter algorithm in Graphpad Prism.

[2] = target: T1, CYP1A2 (Homo sapiens, UniProt P05177); assay: CYP450 enzyme inhibition in liver microsomes (cocktail probe incubation); assay type: in vitro ADME; settings: species not given, 0.05-50 μM tested
T1 construct: studied in liver microsomes of CD-1 mouse, Sprague Dawley rat, Beagle dog, cynomolgus monkey, and human; from tissue; host or cells: liver microsomes
T1 sequence (P05177 1-516): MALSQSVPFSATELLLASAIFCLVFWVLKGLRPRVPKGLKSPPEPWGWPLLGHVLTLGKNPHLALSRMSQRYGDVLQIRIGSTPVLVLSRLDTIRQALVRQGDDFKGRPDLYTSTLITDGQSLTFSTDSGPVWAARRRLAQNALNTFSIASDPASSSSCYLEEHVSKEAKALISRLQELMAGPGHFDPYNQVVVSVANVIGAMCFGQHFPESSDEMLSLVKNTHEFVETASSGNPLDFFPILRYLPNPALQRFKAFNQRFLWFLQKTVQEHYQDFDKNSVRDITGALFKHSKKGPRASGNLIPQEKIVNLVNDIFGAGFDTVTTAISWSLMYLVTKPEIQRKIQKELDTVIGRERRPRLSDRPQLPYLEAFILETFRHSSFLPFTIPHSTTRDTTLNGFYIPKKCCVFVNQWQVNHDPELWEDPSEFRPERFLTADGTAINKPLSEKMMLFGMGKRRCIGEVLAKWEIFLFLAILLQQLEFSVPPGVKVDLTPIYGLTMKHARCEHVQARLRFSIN
Description: (§1) The inhibition potential of test compounds towards major drug metabolizing CYP450 enzymes was studied in liver microsomes of CD-1 mouse, Sprague Dawley rat, Beagle dog, cynomolgus monkey, and human. The inhibition of CYP1A2, CYP2C9, CYP2C19, CYP2D6, and CYP3A4 was assessed using CYP450 specific probe reactions in a cocktail incubation. Seven concentrations of test compounds (0.05, 0.15, 0.5, 1.5, 5, 15, and 50 μM) were evaluated. In addition, known inhibitors for each probe reaction were included as positive controls and incubated at a single concentration above their respective IC50.

[3] = target: T2, CYP2C19 (Homo sapiens, UniProt P33261); assay: as above; assay type: in vitro ADME; settings: species not given, 0.05-50 μM tested
T2 construct: studied in liver microsomes of CD-1 mouse, Sprague Dawley rat, Beagle dog, cynomolgus monkey, and human; from tissue; host or cells: liver microsomes
Description: as §1

[4] = target: T3, CYP2C9 (Homo sapiens, UniProt P11712); assay: as above; assay type: in vitro ADME; settings: species not given, 0.05-50 μM tested
T3 construct: studied in liver microsomes of CD-1 mouse, Sprague Dawley rat, Beagle dog, cynomolgus monkey, and human; from tissue; host or cells: liver microsomes
Description: as §1

[5] = target: T4, CYP2D6 (Homo sapiens, UniProt P10635); assay: as above; assay type: in vitro ADME; settings: species not given, 0.05-50 μM tested
T4 construct: studied in liver microsomes of CD-1 mouse, Sprague Dawley rat, Beagle dog, cynomolgus monkey, and human; from tissue; host or cells: liver microsomes
Description: as §1

[6] = target: T5, CYP3A4 (Homo sapiens, UniProt P08684); assay: as above; assay type: in vitro ADME; settings: species not given, 0.05-50 μM tested
T5 construct: studied in liver microsomes of CD-1 mouse, Sprague Dawley rat, Beagle dog, cynomolgus monkey, and human; from tissue; host or cells: liver microsomes
Description: as §1

[7] = Metabolic stability in human liver microsomes; assay type: in vitro ADME
Description: (§2) The metabolic stability of test compounds was examined in CD-1 mouse, Sprague Dawley rat, Beagle dog, cynomolgus monkey, and human liver microsomes. Test compound (final concentration 1 μM) was mixed with diluted liver microsomes from each of the 5 species and a small aliquot was taken at 0, 5, 10, 20, 30, and 60 minutes for LC/MS/MS analysis. Intrinsic clearance and half-life were calculated.

[8] = Metabolic stability in rat liver microsomes; assay type: in vitro ADME; settings: Sprague Dawley
Description: as §2

[9] = Metabolic stability in mouse liver microsomes; assay type: in vitro ADME, CD-1 mouse; settings: CD-1
Description: as §2

[10] = Metabolic stability in dog liver microsomes; assay type: in vitro ADME; settings: Beagle
Description: as §2

[11] = Metabolic stability in monkey liver microsomes; assay type: in vitro ADME, cynomolgus monkey
Description: as §2

[12] = Pharmacokinetic studies in Sprague Dawley rats (oral gavage and IV); assay type: in vivo; settings: rat, male SD rats, plasma; for AUC(0-t): read-out: AUC0-24 h; for bioavailability: oral 5 mg/kg vs IV 1 mg/kg, read-out: Bioavailibility F %
Description: The pharmacokinetics of test compounds was evaluated in male SD rats when administered via oral gavage and IV injection. For oral dosing, compound was formulated in 0.5% methylcellulose and administered at doses of 5 mg/kg (3 rats per dose level) and volume of 10 mL/kg. For IV dosing, compound was formulated in 5% DMSO/5% Solutol/90% saline and administered to 3 rats at a dose of 1 mg/kg and a volume of 5 mL/kg. The rats were fasted overnight before administration. Plasma samples were collected predose and at 0.5, 1, 3, 6, 9, 12, and 24 hours postdose. The samples were analyzed by LC/MS/MS and the concentration of test compound at each timepoint was determined by linear regression. Pharmacokinetic parameters were calculated from the plasma concentrations using Pheonix WinNonlin.

T4 sequence (P10635 whole entry): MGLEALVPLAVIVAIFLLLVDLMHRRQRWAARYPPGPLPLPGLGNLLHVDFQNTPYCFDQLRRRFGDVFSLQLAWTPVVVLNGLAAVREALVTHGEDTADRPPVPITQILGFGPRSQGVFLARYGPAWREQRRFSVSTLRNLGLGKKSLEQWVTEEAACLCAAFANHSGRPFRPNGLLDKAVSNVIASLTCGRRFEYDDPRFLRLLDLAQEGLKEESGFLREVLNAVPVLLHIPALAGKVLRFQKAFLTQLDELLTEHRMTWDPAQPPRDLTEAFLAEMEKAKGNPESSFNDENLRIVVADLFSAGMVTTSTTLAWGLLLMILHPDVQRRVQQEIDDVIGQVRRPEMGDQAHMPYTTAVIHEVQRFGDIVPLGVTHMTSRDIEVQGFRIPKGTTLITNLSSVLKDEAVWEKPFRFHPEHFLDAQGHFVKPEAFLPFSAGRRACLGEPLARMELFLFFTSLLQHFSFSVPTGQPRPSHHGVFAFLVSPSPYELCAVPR
T3 sequence (P11712 whole entry): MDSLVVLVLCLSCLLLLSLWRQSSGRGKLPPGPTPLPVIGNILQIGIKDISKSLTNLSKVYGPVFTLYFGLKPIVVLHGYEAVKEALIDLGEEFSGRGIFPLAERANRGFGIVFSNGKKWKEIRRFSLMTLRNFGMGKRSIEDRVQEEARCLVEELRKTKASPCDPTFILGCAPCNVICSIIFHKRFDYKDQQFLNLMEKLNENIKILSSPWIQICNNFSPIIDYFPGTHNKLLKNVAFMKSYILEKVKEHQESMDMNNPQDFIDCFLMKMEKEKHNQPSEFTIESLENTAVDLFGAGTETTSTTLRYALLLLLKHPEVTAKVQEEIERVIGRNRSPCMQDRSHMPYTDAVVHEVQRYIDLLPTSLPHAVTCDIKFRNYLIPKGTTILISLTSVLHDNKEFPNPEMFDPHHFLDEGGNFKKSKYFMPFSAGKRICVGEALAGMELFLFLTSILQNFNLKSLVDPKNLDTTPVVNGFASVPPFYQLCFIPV
T5 sequence (P08684 whole entry): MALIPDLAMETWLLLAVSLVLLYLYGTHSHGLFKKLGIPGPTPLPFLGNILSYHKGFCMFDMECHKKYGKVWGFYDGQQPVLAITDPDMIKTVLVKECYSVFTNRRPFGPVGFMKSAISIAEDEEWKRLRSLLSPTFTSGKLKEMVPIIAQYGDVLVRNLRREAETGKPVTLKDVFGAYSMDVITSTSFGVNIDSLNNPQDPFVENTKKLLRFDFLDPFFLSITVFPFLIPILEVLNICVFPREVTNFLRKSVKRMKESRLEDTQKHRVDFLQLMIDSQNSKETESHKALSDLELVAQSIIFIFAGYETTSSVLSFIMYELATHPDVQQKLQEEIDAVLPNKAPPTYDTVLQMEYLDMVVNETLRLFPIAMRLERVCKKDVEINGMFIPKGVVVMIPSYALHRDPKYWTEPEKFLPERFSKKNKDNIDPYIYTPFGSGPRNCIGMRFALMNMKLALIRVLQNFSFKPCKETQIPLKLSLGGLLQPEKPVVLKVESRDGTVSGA
T2 sequence (P33261 whole entry): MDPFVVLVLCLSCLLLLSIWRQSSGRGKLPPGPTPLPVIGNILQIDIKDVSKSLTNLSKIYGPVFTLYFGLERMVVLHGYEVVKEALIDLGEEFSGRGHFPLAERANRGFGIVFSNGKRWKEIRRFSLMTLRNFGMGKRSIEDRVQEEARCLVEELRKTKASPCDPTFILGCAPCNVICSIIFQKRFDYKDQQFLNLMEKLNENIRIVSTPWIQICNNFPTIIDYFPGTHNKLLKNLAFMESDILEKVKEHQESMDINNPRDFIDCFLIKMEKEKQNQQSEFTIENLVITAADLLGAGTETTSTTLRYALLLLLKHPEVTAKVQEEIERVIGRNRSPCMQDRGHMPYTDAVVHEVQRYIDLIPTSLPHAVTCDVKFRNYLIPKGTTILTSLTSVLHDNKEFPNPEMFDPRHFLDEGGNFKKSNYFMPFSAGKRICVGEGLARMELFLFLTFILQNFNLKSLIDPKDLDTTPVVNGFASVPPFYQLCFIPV

Compound	pIC50 [1]	pIC50 [2]	pIC50 [3]	pIC50 [4]	pIC50 [5]	pIC50 [6]	C0 ([12]; IV (1 mg/kg)) [ng/mL]	clearance ([12]; IV (1 mg/kg)) [mL/min/kg]	half-life ([12]; IV (1 mg/kg)) [h]	AUC(0-t) ([12]; IV (1 mg/kg)) [ng·h/mL]	Cmax ([12]; Oral (5 mg/kg)) [ng/mL]	half-life ([12]; Oral (5 mg/kg)) [h]	AUC(0-t) ([12]; Oral (5 mg/kg)) [ng·h/mL]	bioavailability [12] [%]	further results
CC1(C)C(=O)C(C#N)=C[C@]2(C)C3=CC(=O)[C@@H]4[C@@H]5C[C@@](C)(c6nnco6)CC[C@]5(C)CC[C@@]4(C)[C@]3(C)CC[C@@H]12 [Example 9, (4aR,6aS,6bR,8aS,11S,12aS,12bR,14bS)-4,4,6a,6b,8a,11,14b-heptamethyl-11-(1,3,4-oxadiazol-2-yl)-3,13-dioxo-3,4,4a,5,6,6a,6b,7,8,8a,9,10,11,12,12a,12b,13,14b-octadecahydropicene-2-carbonitrile]	> 8.00	< 4.30	4.88	5.51	4.54	6.52	427	56	1.5	301	143	2.2	333	22.1	CLint scaled at 1 μM [7]: 94 mL/min/kg; half-life at 1 μM [7]: 0.222 h; CLint scaled at 1 μM [8]: 72.1 mL/min/kg; half-life at 1 μM [8]: 0.577 h; CLint scaled at 1 μM [9]: 186 mL/min/kg; half-life at 1 μM [9]: 0.492 h; CLint scaled at 1 μM [10]: 104 mL/min/kg; half-life at 1 μM [10]: 0.318 h; CLint scaled at 1 μM [11]: 270 mL/min/kg; half-life at 1 μM [11]: 6.9 min
CC1(C)C(=O)C(C#N)=C[C@]2(C)C3=CC(=O)[C@@H]4[C@@H]5C[C@@](C)(Cc6nnco6)CC[C@]5(C)CC[C@@]4(C)[C@]3(C)CC[C@@H]12 [Example 14, (4aR,6aS,6bR,8aR,11S,12aS,12bR,14bS)-11-((1,3,4-oxadiazol-2-yl)methyl)-4,4,6a,6b,8a,11,14b-heptamethyl-3,13-dioxo-3,4,4a,5,6,6a,6b,7,8,8a,9,10,11,12,12a,12b,13,14b-octadecahydropicene-2-carbonitrile]	> 8.00	< 4.30	5.21	5.52	4.99	6.00	–	–	–	–	–	–	–	–	CLint scaled at 1 μM [7]: 87.9 mL/min/kg; half-life at 1 μM [7]: 0.237 h; CLint scaled at 1 μM [8]: 695 mL/min/kg; half-life at 1 μM [8]: 0.06 h; CLint scaled at 1 μM [9]: 1460 mL/min/kg; half-life at 1 μM [9]: 0.0633 h; CLint scaled at 1 μM [10]: 228 mL/min/kg; half-life at 1 μM [10]: 0.147 h; CLint scaled at 1 μM [11]: 602 mL/min/kg; half-life at 1 μM [11]: 3.1 min
Cc1noc([C@@]2(C)CC[C@]3(C)CC[C@]4(C)[C@H](C(=O)C=C5[C@@]6(C)C=C(C#N)C(=O)C(C)(C)[C@@H]6CC[C@]54C)[C@@H]3C2)n1 [Example 15, (4aR,6aS,6bR,8aS,11S,12aS,12bR,14bS)-4,4,6a,6b,8a,11,14b-heptamethyl-11-(3-methyl-1,2,4-oxadiazol-5-yl)-3,13-dioxo-3,4,4a,5,6,6a,6b,7,8,8a,9,10,11,12,12a,12b,13,14b-octadecahydropicene-2-carbonitrile]	> 8.00	< 4.30	4.87	5.59	4.44	5.80	380	47	2.8	329	89	1.7	412	25	–
CC1(C)C(=O)C(C#N)=C[C@]2(C)C3=CC(=O)[C@@H]4[C@@H]5C[C@@](C)(c6nnc(C(=O)NC7CC7)o6)CC[C@]5(C)CC[C@@]4(C)[C@]3(C)CC[C@@H]12 [Example 19, 5-((2S,4aS,6aR,6bS,8aR,12aS,14aR,14bS)-11-cyano-2,4a,6a,6b,9,9,12a-heptamethyl-10,14-dioxo-1,2,3,4,4a,5,6,6a,6b,7,8,8a,9,10,12a,14,14a,14b-octadecahydropicen-2-yl)-N-cyclopropyl-1,3,4-oxadiazole-2-carboxamide]	> 8.00	< 4.30	5.24	5.92	5.08	5.68	703	32.5	1.8	496	63	4.5	364	14.7	–

Second part, led by results:

pIC50 [1]	pIC50 [2]	pIC50 [3]	pIC50 [4]	pIC50 [5]	pIC50 [6]	C0 ([12]; IV (1 mg/kg)) [ng/mL]	clearance ([12]; IV (1 mg/kg)) [mL/min/kg]	half-life ([12]; IV (1 mg/kg)) [h]	AUC(0-t) ([12]; IV (1 mg/kg)) [ng·h/mL]	Cmax ([12]; Oral (5 mg/kg)) [ng/mL]	half-life ([12]; Oral (5 mg/kg)) [h]	AUC(0-t) ([12]; Oral (5 mg/kg)) [ng·h/mL]	bioavailability [12] [%]	Compound	further results
> 8.00	< 4.30	5.01	5.57	< 4.30	5.55	359	85.7	1.7	191	29	4.1	94	9.9	CC1(C)C(=O)C(C#N)=C[C@]2(C)C3=CC(=O)[C@@H]4[C@@H]5C[C@@](C)(N6CCCC6=O)CC[C@]5(C)CC[C@@]4(C)[C@]3(C)CC[C@@H]12 [Example 12, (4aR,6aS,6bR,8aS,11S,12aS,12bR,14bS)-4,4,6a,6b,8a,11,14b-heptamethyl-3,13-dioxo-11-(2-oxopyrrolidin-1-yl)-3,4,4a,5,6,6a,6b,7,8,8a,9,10,11,12,12a,12b,13,14b-octadecahydropicene-2-carbonitrile]	–
> 8.00	< 4.30	4.93	5.72	< 4.30	5.72	355	78.9	2.2	206	45	2.1	197	19.2	CC1(C)C(=O)C(C#N)=C[C@]2(C)C3=CC(=O)[C@@H]4[C@@H]5C[C@@](C)(N6CCOC6=O)CC[C@]5(C)CC[C@@]4(C)[C@]3(C)CC[C@@H]12 [Example 13, (4aR,6aS,6bR,8aS,11S,12aS,12bR,14bS)-4,4,6a,6b,8a,11,14b-heptamethyl-3,13-dioxo-11-(2-oxooxazolidin-3-yl)-3,4,4a,5,6,6a,6b,7,8,8a,9,10,11,12,12a,12b,13,14b-octadecahydropicene-2-carbonitrile]	–
> 8.00	< 4.30	4.71	5.33	< 4.30	5.68	472	62.5	1.4	267	50	2.3	181	13.6	CC1(C)C(=O)C(C#N)=C[C@]2(C)C3=CC(=O)[C@@H]4[C@@H]5C[C@@](C)(N6C(=O)CCC6=O)CC[C@]5(C)CC[C@@]4(C)[C@]3(C)CC[C@@H]12 [Example 18, (4aR,6aS,6bR,8aS,11S,12aS,12bR,14bS)-11-(2,5-dioxopyrrolidin-1-yl)-4,4,6a,6b,8a,11,14b-heptamethyl-3,13-dioxo-3,4,4a,5,6,6a,6b,7,8,8a,9,10,11,12,12a,12b,13,14b-octadecahydropicene-2-carbonitrile]	–

— patent US20220017566A1, “TERPINOID DERIVATIVES AND USES THEREOF” (SICHUAN HAISCO PHARMACEUTICAL CO., LTD., priority 2018, published 2022)
